According to EP2881391A1, “Spiroindoline carbocycle derivatives and pharmaceutical compositions thereof” (Bayer Pharma Aktiengesellschaft, priority 2013, dated 2015):

Biological target: T1, human GnRH receptor (Homo sapiens, UniProt P30968)
T1 construct: line established by Prof; Thomas Gudermann; host or cells: CHO cells
T1 sequence (P30968 1-328): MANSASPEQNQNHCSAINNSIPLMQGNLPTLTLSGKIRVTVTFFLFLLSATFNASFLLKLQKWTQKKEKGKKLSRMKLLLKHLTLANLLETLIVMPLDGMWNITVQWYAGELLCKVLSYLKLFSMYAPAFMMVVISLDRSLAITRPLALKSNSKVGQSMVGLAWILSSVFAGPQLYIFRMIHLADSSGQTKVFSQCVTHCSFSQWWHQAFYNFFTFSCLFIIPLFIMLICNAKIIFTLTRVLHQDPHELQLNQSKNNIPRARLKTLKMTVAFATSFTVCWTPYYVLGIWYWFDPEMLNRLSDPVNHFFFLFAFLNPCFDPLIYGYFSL
Assay: IP-One HTRF assay (inhibition of GnRH-R activation by buserelin)
Type: cell-based
Conditions: IP-One HTRF assay with buserelin (at EC80) stimulation; CHO cells stably expressing human GnRH receptor; tested 20 µM to 1 nM; read-out: Potency IC50
From the text: By using homogenous time-resolved fluorescence resonance energy transfer (HTRF), the generation of one component of the GnRH-R signalling cascade can be measured. After stimulation of CHO cells stably expressing human GnRH receptor (established by Prof. Thomas Gudermann, currently University of Marburg, Germany; supplied as frozen cell aliquots by Cell Culture Services, Hamburg, Germany) with the EC80 of the GnRH agonist buserelin, Gq protein-coupled receptor signalling cascade is activated resulting in PLC-dependent cleavage of PIP2 to Inositol-1,4,5-triphosphate (IP3) and Diacylglycerol. The second messenger IP3 is degraded intracellularly to myo-inositol. Inhibition of the final degradation step from Inositol-1-phosphate (IP1) to myo-inositol by addition of lithium chloride leads to accumulation of IP1 in the cells. In cell lysates, IP1 can be detected via an antibody-based HTRF detection technology, where IP1 can displace the FRET acceptor IP1-d2 from binding by Terbium-labelled anti-IP1 antibody as donor resulting in a signal decrease. Compounds were tested for their capability of inhibiting GnRH-R activation by buserelin. For all IP-One HTRF® assays reagents of Cisbio Bioassays (IP-One Tb Jumbo kit, #62IPAPEJ; Cisbio Bioassays, Bagnols sur Cèze Cedex, France) were used.
For the assay, frozen cell aliquots were thawed and a cell suspension (3.33x10^6 cells/ml) containing IP1-d2 (dilution 1:40) was prepared and incubated at 37°C. After 1 h 3 µl of the cell suspension were added to 50 nl of a 100-fold concentrated solution of the test compound in DMSO pre-dispensed in a well of a white low-volume 384-well microtiter plate (Greiner Bio-One, Frickenhausen, Germany). The mixture was incubated for 20 min at 22°C to allow for pre-binding of the test compound to the GnRH-R. The receptor signaling cascade was stimulated by addition of 2 µl buserelin or LHRH (at EC50 or EC80) in stimulation buffer (10 mM Hepes pH 7.4, 1 mM CaCl2, 0.5 mM MgCl2, 4.2 mM KCI, 146 mM NaCl, 5.5 mM α-D-Glucose, 0.05% BSA, 125 mM LiCl (final assay concentration 50 mM) in aqua dest.). Plates were incubated for 1 h at 37°C and 5% carbon dioxide before the cells were lysed by adding 3 µl Terbium-labelled anti-IP1 antibody (1:40) diluted in Conjugate & Lysis buffer as supplied with the kit. After an incubation for 1 h at 22°C to enable complete cell lysis and antibody binding to free IP1 or IP1-d2, plates were measured in an HTRF reader, e.g. a RUBYstar, PHERAstar (both BMG Labtechnologies, Offenburg, Germany) or a Viewlux (PerkinElmer LAS, Rodgau-Jügesheim, Germany). From the fluorescence emissions at 665 nm (FRET) and at 620 nm (background signal of Terbium-antibody), the ratio (emission at 665 nm divided by emission at 620 nm) was calculated and the data were normalized (reaction without test compound = 0% inhibition; all other assay components except agonist = 100% inhibition). On the same microtiter plate, compounds were tested at 10 different concentrations in the range of 20 µM to 1 nM (20 µM, 6.7 µM, 2.2 µM, 0.74 µM, 0.25 µM, 82 nM, 27 nM, 9.2 nM, 3.1 nM and 1 nM; dilution series prepared before the assay at the level of the 100-fold conc. stock solutions by serial 1:3 dilutions in 100% DMSO) in duplicate values for each concentration. By using an in-house software, the IC50 values were calculated by a 4 parameter fit. The data reveal that the compounds of the present invention have antagonist activities on the human GnRH receptor. Within the meaning of the present invention the antagonist activity is reflected by the ability of a compound of the invention to antagonize human GnRH receptor stimulation in IP-One HTRF® assay at least three times the standard deviation over the background level.

CC(C)=CCC1N(S(=O)(=O)c2ccc(F)cc2)c2ccc(C(=O)Nc3cc[nH]n3)cc2C12CCC(O)(C(F)(F)F)CC2 (stereo not shown) [Example 12, 1'-[(4-fluorophenyl)sulfonyl]-4-hydroxy-2'-(3-methylbut-2-en-1-yl)-N-(1H-pyrazol-3-yl)-4-(trifluoromethyl)-1',2'-dihydrospiro[cyclohexane-1,3'-indole]-5'-carboxamide]
IC50: 1420 nM

CC(C)=CCC1N(S(=O)(=O)c2ccc(F)cc2)c2ccc(C(=O)Nc3cccc(C)c3)cc2C12CCC(O)(C(F)(F)F)CC2 (stereo not shown) [Example 13, 1'-[(4-fluorophenyl)sulfonyl]-4-hydroxy-2'-(3-methylbut-2-en-1-yl)-N-(3-methylphenyl)-4-(trifluoromethyl)-1',2'-dihydrospiro[cyclohexane-1,3'-indole]-5'-carboxamide]
IC50: 3250 nM

CC(C)=CCC1N(S(=O)(=O)c2ccc(F)cc2)c2ccc(C(=O)Nc3cccc(C(=O)O)c3)cc2C12CCC(O)(C(F)(F)F)CC2 (stereo not shown) [Example 14, 3-[({1'-[(4-fluorophenyl)sulfonyl]-4-hydroxy-2'-(3-methylbut-2-en-1-yl)-4-(trifluoromethyl)-1',2'-dihydrospiro[cyclohexane-1,3'-indol]-5'-yl}carbonyl)amino] benzoic acid]
IC50: 639 nM

CC(C)=CCC1N(S(=O)(=O)c2ccc(F)cc2)c2ccc(C(=O)Nc3cccc(S(C)(=O)=O)c3)cc2C12CCC(O)(C(F)(F)F)CC2 (stereo not shown) [Example 15, 1'-[(4-fluorophenyl)sulfonyl]-4-hydroxy-2'-(3-methylbut-2-en-1-yl)-N-[3-(methylsulfonyl)phenyl]-4-(trifluoromethyl)-1',2'-dihydrospiro[cyclohexane-1,3'-indole]-5'-carboxamide]
IC50: 1280 nM

CC(C)=CCC1N(S(=O)(=O)c2ccc(F)cc2)c2ccc(C(=O)Nc3cccc(S(N)(=O)=O)c3)cc2C12CCC(O)(C(F)(F)F)CC2 (stereo not shown) [Example 16, 1'-[(4-fluorophenyl)sulfonyl]-4-hydroxy-2'-(3-methylbut-2-en-1-yl)-N-(3-sulfamoylphenyl)-4-(trifluoromethyl)-1',2'-dihydrospiro[cyclohexane-1,3'-indole]-5'-carboxamide]
IC50: 1850 nM

CC(C)=CCC1N(S(=O)(=O)c2ccc(F)cc2)c2ccc(C(=O)Nc3ccon3)cc2C12CCC(O)(C(F)(F)F)CC2 (stereo not shown) [Example 17, 1'-[(4-fluorophenyl)sulfonyl]-4-hydroxy-2'-(3-methylbut-2-en-1-yl)-N-(1,2-oxazol-3-yl)-4-(trifluoromethyl)-1',2'-dihydrospiro[cyclohexane-1,3'-indole]-5'-carboxamide]
IC50: 524 nM

CC(C)=CCC1N(S(=O)(=O)c2ccc(F)cc2)c2ccc(C(=O)Nc3cncc(C)c3)cc2C12CCC(O)(C(F)(F)F)CC2 (stereo not shown) [Example 18, 1'-[(4-fluorophenyl)sulfonyl]-4-hydroxy-2'-(3-methylbut-2-en-1-yl)-N-(5-methylpyridin-3-yl)-4-(trifluoromethyl)-1',2'-dihydrospiro[cyclohexane-1,3'-indole]-5'-carboxamide]
IC50: 1840 nM

CC(C)=CCC1N(S(=O)(=O)c2ccc(F)cc2)c2ccc(C(=O)Nc3cncc(C(F)(F)F)c3)cc2C12CCC(O)(C(F)(F)F)CC2 (stereo not shown) [Example 19, 1'-[(4-fluorophenyl)sulfonyl]-4-hydroxy-2'-(3-methylbut-2-en-1-yl)-4-(trifluoromethyl)-N-[5-(trifluoromethyl)pyridin-3-yl]-1',2'-dihydrospiro[cyclohexane-1,3'-indole]-5'-carboxamide]
IC50: 9400 nM

CC(C)=CCC1N(S(=O)(=O)c2ccc(F)cc2)c2ccc(C(=O)Nc3ncco3)cc2C12CCC(O)(C(F)(F)F)CC2 (stereo not shown) [Example 20, 1'-[(4-fluorophenyl)sulfonyl]-4-hydroxy-2'-(3-methylbut-2-en-1-yl)-N-(1,3-oxazol-2-yl)-4-(trifluoromethyl)-1',2'-dihydrospiro[cyclohexane-1,3'-indole]-5'-carboxamide]
IC50: 655 nM

CC(C)=CCC1N(S(=O)(=O)c2ccc(F)cc2)c2ccc(C(=O)NCC3CCCCC3)cc2C12CCC(O)(C(F)(F)F)CC2 (stereo not shown) [Example 21, N-(cyclohexylmethyl) -1'-[(4-fluorophenyl)sulfonyl]-4-hydroxy-2'-(3-methylbut-2-en-1-yl)-4-(trifluoromethyl)-(trifluoromethyl)-1',2'-dihydrospiro[cyclohexane-1,3'-indole]-5'-carboxamide]
IC50: 13200 nM

CC(C)=CCC1N(S(=O)(=O)c2ccc(F)cc2)c2ccc(C(=O)NCc3ccccc3Cl)cc2C12CCC(O)(C(F)(F)F)CC2 (stereo not shown) [Example 22, N-(2-chlorobenzyl)-1'-[(4-fluorophenyl)sulfonyl]-4-hydroxy-2'-(3-methylbut-2-en-1-yl)-4-(trifluoromethyl)-1',2'-dihydrospiro[cyclohexane-1,3'-indole]-5'-carboxamide]
IC50: 745 nM

CC(C)=CCC1N(S(=O)(=O)c2ccc(F)cc2)c2ccc(C(=O)NCc3ncccc3C(F)(F)F)cc2C12CCC(O)(C(F)(F)F)CC2 (stereo not shown) [Example 23, 1'-[(4-fluorophenyl)sulfonyl]-4-hydroxy-2'-(3-methylbut-2-en-1-yl)-4-(trifluoromethyl)-N-{[3-(trifluoromethyl)pyridin-2-yl]methyl}-1',2'-dihydrospiro[cyclohexane-1,3'-indole]-5'-carboxamide]
IC50: 713 nM

Cc1cccc(NC(=O)c2ccc3c(c2)C2(CCC(O)(C(F)(F)F)CC2)C(C2CC2)N3S(=O)(=O)c2ccc(F)cc2)c1 (stereo not shown) [Example 24, 2'-cyclopropyl-1'-[(4-fluorophenyl)sulfonyl]-4-hydroxy-N-(3-methylphenyl)-4-(trifluoromethyl)-1',2'-dihydrospiro[cyclohexane-1,3'-indole]-5'-carboxamide]
IC50: 796 nM

Cc1cncc(NC(=O)c2ccc3c(c2)C2(CCC(O)(C(F)(F)F)CC2)C(C2CC2)N3S(=O)(=O)c2ccc(F)cc2)c1 (stereo not shown) [Example 25, 2'-cyclopropyl-1'-[(4-fluorophenyl)sulfonyl]-4-hydroxy-N-(5-methylpyridin-3-yl)-4-(trifluoromethyl)-1',2'-dihydrospiro[cyclohexane-1,3'-indole]-5'-carboxamide]
IC50: 559 nM

CC1N(S(=O)(=O)c2ccc(F)cc2)c2ccc(C(=O)NCc3ccccc3Cl)cc2C12CCC(O)(C(F)(F)F)CC2 (stereo not shown) [Example 26, N-(2-chlorobenzyl)-1'-[(4-fluorophenyl)sulfonyl]-4-hydroxy-2'-methyl-4-(trifluoromethyl)-1',2'-dihydrospiro[cyclohexane-1,3'-indole]-5'-carboxamide]
IC50: 432 nM

COC(=O)c1cccc(S(=O)(=O)N2c3ccc(C(=O)Nc4ccon4)cc3C3(CCC(O)(C(F)(F)F)CC3)C2C2CC2)c1 (stereo not shown) [Example 27, methyl 3-{[2'-cyclopropyl-4-hydroxy-5'-(1,2-oxazol-3-ylcarbamoyl)-4-(trifluoromethyl)spiro[cyclohexane-1,3'-indol]-1'(2'H)-yl]sulfonyl}benzoate]
IC50: 1120 nM
